# Data: article PMC6167350, “Small-molecule AgrA inhibitors F12 and F19 act as antivirulence agents against Gram-positive pathogens” (Scientific Reports, 2018)
# How the values were obtained:
# [1] = molecular target: T1, AgrA (C-terminal DNA-binding domain, AgrA_C) (Staphylococcus aureus, UniProt P0A0I7, C199S); experiment: microscale thermophoresis (Alexa Fluor 647-labeled protein)
# T1 sequence (P0A0I7 143-238 C199S): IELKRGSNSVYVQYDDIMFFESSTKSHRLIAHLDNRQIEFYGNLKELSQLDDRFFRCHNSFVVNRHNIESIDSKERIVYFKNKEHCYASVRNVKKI
# [2] = molecular target: AgrA (C-terminal DNA-binding domain, AgrA_C) (Staphylococcus epidermidis, UniProt Q8CNM5); experiment: microscale thermophoresis; also EMSA (F19 blocks P3 DNA binding)
Structure (SMILES),Kd [1] [nM],Kd [2] [nM]
CCCCCCc1cc(C(=O)COc2ccc(C(C)C)cc2)c(O)cc1O [F19],2900 ± 400,2700 ± 700
CCCCCCc1cc(C(=O)COc2ccc(F)cc2F)c(O)cc1O [F12],4500 ± 400,–
